# Measured values taken from patent US9901573B2, “Compositions, methods, and kits for regulating energy metabolism” (NuSirt Sciences, Inc., priority 2012, dated 2018).
# Marks after values point to notes of the source that are not given here.
# What was measured:
# C2C12 myotubes [1] = test: Mitochondrial biogenesis (mitochondrial mass, NAO probe); format: cell-based; details: FIG. 13
# Procedure: (§1) Cell Culture: C2C12 and 3T3-L1 preadipocytes (American Type Culture Collection) were plated at a density of 8000 cells/cm^2 (10 cm^2 dish) and grown in Dulbecco's modified eagle's medium (DMEM) containing 10% fetal bovine serum (FBS), and antibiotics (growth medium) at 37° C. in 5% CO2. Confluent 3T3-L1 preadipocytes were induced to differentiate with a standard differentiation medium consisting of DMEM medium supplemented with 10% FBS, 250 nM dexamethasone, 0.5 mM 3-Isobutyl-1-methylxanthine (IBMX) and 1% penicillin-streptomycin. Preadipocytes were maintained in this differentiation medium for 3 days and subsequently cultured in growth medium. Cultures were re-fed every 2-3 days to allow >90% cells to reach fully differentiation before conducting chemical treatment. For differentiation of C2C12 cells, cells were grown to 100% confluence, transferred to differentiation medium (DMEM with 2% horse serum and 1% penicillin-streptomycin), and fed with fresh differentiation medium every day until myotubes were fully formed (3 days). Mitochondrial biogenesis: Mitochondrial biogenesis was assessed as change in mitochondrial mass, as previously described (2). The mitochondrial probe NAO (Invitrogen, Carlsbad, Calif.) was used to analyze mitochondrial mass by fluorescence (excitation 485 nm and emission 520 nm) and quantitative data was obtained with a fluorescence microplate reader (Synergy HT, BioTek Instruments, Winooski, Vt.). The intensity of fluorescence was expressed as arbitrary units per μg protein and normalized to control values within each assay.
# C2C12 myotubes [2] = test: Fatty acid oxidation (O2 consumption response to palmitate) in myotubes; format: cell-based; details: vs control
# Procedure: Cell Culture: C2C12 and 3T3-L1 preadipocytes (American Type Culture Collection) were plated at a density of 8000 cells/cm^2 (10 cm^2 dish) and grown in Dulbecco's modified eagle's medium (DMEM) containing 10% fetal bovine serum (FBS), and antibiotics (growth medium) at 37° C. in 5% CO2. Confluent 3T3-L1 preadipocytes were induced to differentiate with a standard differentiation medium consisting of DMEM medium supplemented with 10% FBS, 250 nM dexamethasone, 0.5 mM 3-Isobutyl-1-methylxanthine (IBMX) and 1% penicillin-streptomycin. Preadipocytes were maintained in this differentiation medium for 3 days and subsequently cultured in growth medium. Cultures were re-fed every 2-3 days to allow >90% cells to reach fully differentiation before conducting chemical treatment. For differentiation of C2C12 cells, cells were grown to 100% confluence, transferred to differentiation medium (DMEM with 2% horse serum and 1% penicillin-streptomycin), and fed with fresh differentiation medium every day until myotubes were fully formed (3 days). Fatty acid oxidation: Cellular oxygen consumption was measured using a Seahorse Bioscience XF24 analyzer (Seahorse Bioscience, Billerica, Mass.) in 24-well plates at 37° C., as described by Feige et al (1) with slight modifications. Cells were seeded at 40,000 cells per well, differentiated as described above, treated for 24 hours with the indicated treatments, washed twice with non-buffered carbonate-free pH 7.4 low glucose (2.5 mM) DMEM containing carnitine (0.5 mM), equilibrated with 550 μL of the same media in a non-CO2 incubator for 45 minutes, and then inserted into the instrument for 15 minutes of further equilibration, followed by O2 consumption measurement. Three successive baseline measurements at five-minute intervals were taken prior to injection of palmitate (200 μM final concentration). Four successive 5-minute measurements of O2 consumption were then conducted, followed by 10 minute re-equilibration and another 3-4 5-minute measurements. This measurement pattern was then repeated over a 4-6 hour period. Data for each sample were normalized to the pre-palmitate injection baseline for that sample and expressed as % change from that baseline. […] The area under of the curve of O2 consumption change from baseline for each sample was then calculated and used for subsequent analysis.
# Phospho-AMPKα (Thr172) = Phospho-AMPKα (Thr172) Western blot in myotubes; format: cell-based; details: C2C12 myotubes, FIG. 11
# Procedure: as §1, with “days).” for “days). Mitochondrial biogenesis: Mitochondrial biogenesis was assessed as change in mitochondrial mass, as previously described (2). The mitochondrial probe NAO (Invitrogen, Carlsbad, Calif.) was used to analyze mitochondrial mass by fluorescence (excitation 485 nm and emission 520 nm) and quantitative data was obtained with a fluorescence microplate reader (Synergy HT, BioTek Instruments, Winooski, Vt.). The intensity of fluorescence was expressed as arbitrary units per μg protein and normalized to control values within each assay.”
# (§2) Western blot: The Phospho-AMPKα (Thr172)- and Sirt1 (mouse specific)-antibody was obtained from Cell Signaling (Danvers, Mass.). C2C12 myotubes were treated as indicated in results and the cellular fractions were prepared using standard methods. Protein was measured by BCA kit (Thermo Scientific). […] Visualization and chemiluminescent detection was conducted using BioRad ChemiDoc instrumentation and software (Bio-Rad Laboratories, Hercules, Calif.) and band intensity was assessed using Image Lab 4.0 (Bio-Rad Laboratories, Hercules, Calif.), with correction for background and loading controls. P-AMPK was detected at 61-66 kDA and Sirt1 was detected at 104-115 kDA.
# 3T3-L1 adipocytes [3] = test: Fatty acid oxidation (O2 consumption response to palmitate) in adipocytes; format: cell-based; details: FIG. 8, % change from control
# Procedure: (§3) Cell Culture: C2C12 and 3T3-L1 preadipocytes (American Type Culture Collection) were plated at a density of 8000 cells/cm^2 (10 cm^2 dish) and grown in Dulbecco's modified eagle's medium (DMEM) containing 10% fetal bovine serum (FBS), and antibiotics (growth medium) at 37° C. in 5% CO2. Confluent 3T3-L1 preadipocytes were induced to differentiate with a standard differentiation medium consisting of DMEM medium supplemented with 10% FBS, 250 nM dexamethasone, 0.5 mM 3-Isobutyl-1-methylxanthine (IBMX) and 1% penicillin-streptomycin. Preadipocytes were maintained in this differentiation medium for 3 days and subsequently cultured in growth medium. Cultures were re-fed every 2-3 days to allow >90% cells to reach fully differentiation before conducting chemical treatment. […]
# Fatty acid oxidation: Cellular oxygen consumption was measured using a Seahorse Bioscience XF24 analyzer (Seahorse Bioscience, Billerica, Mass.) in 24-well plates at 37° C., as described by Feige et al (1) with slight modifications. […] Data for each sample were normalized to the pre-palmitate injection baseline for that sample and expressed as % change from that baseline. […] The area under of the curve of O2 consumption change from baseline for each sample was then calculated and used for subsequent analysis.
# 3T3-L1 adipocytes [4] = test: Glucose utilization (extracellular acidification) in adipocytes; format: cell-based; details: FIG. 10
# Procedure: as §3
# (§4) Glucose Utilization: In the absence of a fatty acid source and oxidative metabolism, glycolysis and subsequent lactate production results in extracellular acidification, which was also measured using a Seahorse Bioscience XF24 analyzer. […] Data for each sample were normalized to the pre-glucose injection baseline for that sample and expressed as % change from that baseline. The area under of the curve of extracellular acidification change from baseline for each sample was the calculated and used for subsequent analysis.
# C2C12 myotubes [5] = test: Glucose utilization (extracellular acidification) in myotubes; format: cell-based; details: FIG. 9
# Procedure: as §3, §4
# Sirt1 = Sirt1 protein expression Western blot in myotubes; format: cell-based, mouse; details: C2C12 myotubes, FIG. 12
# Procedure: as §3
# as §2, with “C2C12 myotubes were treated as indicated in results and the cellular fractions were prepared using standard methods.” left out
# 3T3-L1 adipocytes [6] = test: Intracellular Ca2+ by fura-2 imaging in adipocytes; format: cell-based
# Procedure: Cell culture: 3T3-L1 pre-adipocytes were incubated at a density of 8000 cells/cm^2 (10 cm^2 dish) and grown in the absence of insulin in Dulbecco's modified Eagle's medium (DMEM) containing 10% FBS and antibiotics (1% penicillin-streptomycin)(adipocyte medium) at 37° C. in 5% CO2 in air. Confluent pre-adipocytes were induced to differentiate with a standard differentiation medium consisting of DMEM-F10 (1:1, vol/vol) medium supplemented with 1% fetal bovine serum (FBS), 250 nM dexamethasone (DEXA), isobutylmethylxanthine (IBMX) (0.5 mM) and antibiotics. Pre-adipocytes were maintained in this differentiation medium for 3 days (unless specifically indicated) and subsequently cultured in adipocyte medium. Cultures were re-fed every 2-3 days to allow 90% cells to reach fully differentiation before treatment.
# Intracellular Ca^2+ ([Ca^2+]i): [Ca^2+]i was measured using a fura-2 dual wavelength fluorescence imaging system. Adipocytes were plated and differentiated in 35 mm dishes with glass coverslips (P35G-0-14-C, MatTek Corporation). Prior to [Ca^2+]i measurement, cells were preincubated in serum-free medium overnight and rinsed with Hepes Balanced Salt Solution (HBSS) containing the following components (in mM): NaCl 138, CaCl2 1.8, MgSO4 0.8, NaH2PO4 0.9, NaHCO3 4, glucose 5, glutamine 6, Hepes 20, and bovine serum albumin 1%. Cells were loaded with fura-2 acetoxymethyl ester (AM) (10 μM) in the same buffer for 2 hr at 37° C. in a dark incubator with 5% CO2. To remove extracellular dye, cells were rinsed with HBSS 3 times and then postincubated at room temperature for an additional 1 hr for complete hydrolysis of cytoplasmic fura-2 AM. The dishes with dye-loaded cells were mounted on the stage of Nikon TMS-F fluorescence inverted microscope with a Cohu 4915 CCD camera. Fluorescent images were captured alternatively at excitation wavelength of […] with an emission wavelength of 520 nm. [Ca^2]i was calculated using a standard ratio equation. Each analysis evaluated responses of 8-10 representative whole cells. Images were analyzed with InCytIm2 version 4.62 imaging software (Intracellular Imaging, Cincinnati, Ohio). Images were calibrated using a fura-2 calcium imaging calibration kit (Molecular Probes, Eugene, Oreg.) to create a calibration curve in solution, and cellular calibration was accomplished using digitonin (25 μM) and pH 8.7 Tris-EGTA (100 mM) to measure maximal and minimal [Ca^2+]i levels.
# [7] = FIG. 4/5, 24 hours, leucine, valine, isoleucine 0.5 mM, B6 100 nM as pyridoxal phosphate
Structure (SMILES),increase in mitochondrial biogenesis (mitochondrial biomass) (C2C12 myotubes [1]),increase in fatty acid oxidation (C2C12 myotubes [2]; [7]),"AMPK activation (Phosphorylated AMPK Thr172), increase (Phospho-AMPKα (Thr172))",increase in fatty acid oxidation (3T3-L1 adipocytes [3]),"increase in fatty acid oxidation (C2C12 myotubes [2]; FIG. 6/7, metformin 100 μM)",increase in glucose utilization (3T3-L1 adipocytes [4]),increase in glucose utilization (C2C12 myotubes [5]),"Sirt1 protein levels, increase (Sirt1)",Intracellular Ca2+ (3T3-L1 adipocytes [6]; PLP 50 nM),Intracellular Ca2+ (3T3-L1 adipocytes [6]; PLP 100 nM)
CC(C)[C@H](N)C(=O)O [valine],no significant effect,small change in fatty acid oxidation when compared to control,"Neither treatment with leucine, valine, nor B6 alone exerted any significant effect",,,,,,,
CC[C@H](C)[C@H](N)C(=O)O [isoleucine],no significant effect,small change in fatty acid oxidation when compared to control,,small change from baseline,,,,,,
CN(C)C(=N)N=C(N)N [metformin],effect similar to leucine,,,,comparable effect,,,,,
"Cc1ncc(COP(=O)(O)O)c(C=O)c1O [PLP, pyridoxal phosphate]",,no significant independent effect,"Neither treatment with leucine, valine, nor B6 alone exerted any significant effect",,,no independent effect,no independent effect,unaffected,133.2^c ± nM,96.3^b ± nM
